# According to paper PMC6341082 (Translational Psychiatry, 2019):
# Key:
# [1] = tested on: hippocampus of Adnp+/- mice; test: Diffusion tensor imaging (DTI) MRI of chronically treated brains; format: in vivo, mouse
# Description: Seven–eight-month-old male mice underwent MRI on a 7.0 T/30 spectrometer (Bruker, Rheinstetten, Germany) using a volume coil for excitation and a rat quadrature coil for acquisition. The MRI protocol used here was the DTI.
# DTI was obtained using a diffusion-weighted (DW) spin-echo echo-planar-imaging (EPI) pulse sequence with the following parameters: TR/TE = 4000/25 ms, Δ/δ = 10/4.5 ms, 4 EPI segments and 32 non-collinear gradient directions with a single b value (1000 sec/mm^2) and two images with b value of 0 sec/mm^2 (referred to as b0). Geometrical parameters were: 24 slices of 0.5 mm thickness, matrix size of 128 × 128 and FOV of […]). The imaging protocol was repeated three times for signal averaging and to compensate for acquisition where significant head motion was observed. Image analysis included DTI analysis of the DW-EPI images to produce the mean diffusivity (MD) and fractional anisotropy (FA) indexed maps following a two-way ANOVA with Tukey post-hoc test.
# VGLUT1 = test: Immunohistochemistry; format: in vivo, mouse; conditions: male Adnp+/- mice
# Experimental: Immunohistochemistry was carried out as previously described. Briefly, paraffin sections were deparaffinized, rehydrated in graded alcohols, and antigen retrieval was performed with citrate buffer pH 6. Endogenous peroxidase was blocked with 3% H2O2 in methanol and was followed by incubation in the appropriate blocking buffer for 30 min. Sections were incubated overnight at 4 °C with the primary antibodies against VGLUT1 (Santa Cruz Biotechnology, sc-13320). The secondary antibody used was Rabbit Anti-Goat IgG (EMD Millipore, AP106B). Immunoreactions were visualized with the aim of Avidin-Peroxidase (Sigma- Aldrich Chemical), and 3,3′-Diaminobenzidine (DAB, brown color, Sigma-Aldrich Chemical) was utilized as chromogen. Sections were then counterstained with hematoxylin (light blue color).
# Sections were further examined under optical microscope Zeiss Axioplan-2 with the aid of a CCD camera (Nikon DS-5M) for observations of the slides. In average, 25 optical fields were examined from each group under a magnification of ×40. Measurements were performed with Image J software (1.43 u) in the areas of the hippocampus and the cortex. The results were expressed as area/mm^2 (as previously described[14]), representing the area of DAB positive signal in each photo divided by the total area of the same photo. An additional parameter measured was the Integrated Density, calculating and displaying […]: the product of Area and Mean Gray Value.
# Adnp+/- mice [2] = test: Odor discrimination test; format: in vivo, mouse
# Experimental: (§1) Experiments were performed as previously described[8],[30],[40]. […] The behavioral assays were then initiated together with a continuous drug application. For detailed description of the object recognition test and the social approach task, please see supplemental materials and methods. In the odor discrimination test, odors were presented on a suspended cotton swab to the test mouse placed into the clean cage with fresh shavings. Each mouse was tested during three consecutive 2-min periods for each odor, with 2-min intervals between presentations. The time that the mouse smelled the swab was recorded (beginning whenever the animal oriented its nostrils toward the cotton swab, within 2 cm or less)[8],[30]. The hanging wire test measuring the strength of the mouse paws by using the latency to fall off an inverted cage lid (placed 50 cm above the surface) onto a soft bedding (maximum time 90 sec), was performed as previously described[5],[40]. Data are expressed as mean ± SEM.
# Adnp+/- mice [3] = test: Object recognition test; format: in vivo, mouse; conditions: male Adnp+/+ mice (Supplemental Fig. S2A, B)
# Experimental: Experiments were performed as previously described[8],[30],[40]. Three–six-month-old male mice were used, and NAP-CB was administered once daily (0.5 µg/5 µl/mouse) for one month. The behavioral assays were then initiated together with a continuous drug application. For detailed description of the object recognition test and the social approach task, please see supplemental materials and methods. In the odor discrimination test, odors were presented on a suspended cotton swab to the test mouse placed into the clean cage with fresh shavings. Each mouse was tested during three consecutive 2-min periods for each odor, with 2-min intervals between presentations. The time that the mouse smelled the swab was recorded (beginning whenever the animal oriented its nostrils toward the cotton swab, within 2 cm or less)[8],[30]. […] Data are expressed as mean ± SEM.
# Object recognition: The test included two consecutive days of habituation (5 min per day) and the experimental day which consisted of the three phases. […] The time spent sniffing/touching each object was measured. Mouse movement and exploratory behavior were tracked and recorded using the EthoVision XT video tracking system and software (Noldus Inc. Leesburg, VA). […]
# Adnp+/- mice [4] = test: Hanging wire test; format: in vivo, mouse; conditions: significant vs vehicle
# Experimental: as §1
# Adnp+/- mice [5] = test: Social approach task (social recognition and social memory); format: in vivo, mouse
# Experimental: Experiments were performed as previously described[8],[30],[40]. Three–six-month-old male mice were used, and NAP-CB was administered once daily (0.5 µg/5 µl/mouse) for one month. The behavioral assays were then initiated together with a continuous drug application. For detailed description of the object recognition test and the social approach task, please see supplemental materials and methods. In the odor discrimination test, odors were presented on a suspended cotton swab to the test mouse placed into the clean cage with fresh shavings. Each mouse was tested during three consecutive 2-min periods for each odor, with 2-min intervals between presentations. The time that the mouse smelled the swab was recorded (beginning whenever the animal oriented its nostrils toward the cotton swab, within 2 cm or less)[8],[30]. The hanging wire test measuring the strength of the mouse paws by using the latency to fall off an inverted cage lid (placed 50 cm above the surface) onto a soft bedding (maximum time 90 sec), was performed as previously described[5],[40]. Data are expressed as mean ± SEM.
# Social approach: A plexiglas box was divided into three adjacent chambers, each 20 cm (length) × 40.5 cm (width) × 22 cm (height), separated by two removable doors. Steel wire pencil cups (10.16 cm (diameter), 10.8 cm (height)), www.kitchen-plus.com, were used as both containment for the target mice and as inanimate objects (weights prevented the mice from overturning the cups). […] The next day, each subject mouse was tested in an experiment with three phases, each 10-min long (measured with a simple timer): I and II, the habituation phases (ensuring no bias), and III, the experimental phase. […] Mouse movement and exploratory behavior were tracked and recorded using the EthoVision XT video tracking system and software (Noldus Inc. Leesburg, VA). The discrimination capacity (social memory) was analyzed using the formula: D2 = (b-a)/(b+a), where ‘a’ designated the time of exploration of the familiar mouse and 'b' designated the time of exploration of the novel mouse.
# patients = conditions: cited from earlier work
# Description: Together, these studies attest to preclinical efficacy, holding a promise for clinical effectiveness. […] Nevertheless, in a study performed in severely affected individuals suffering from progressive supranuclear palsy (PSP), belonging to the family of rapidly progressing frontotemporal neurodegener ...
# [6] = tested on: Slc17a7 gene encoding VGLUT1; test: Gene expression analysis (quantitative RT-PCR); format: in vivo, mouse
# Experimental: Hippocampal and cerebral cortical RNA of mouse that were 7.5-month-old were extracted using TRI Reagent® (T9424, Sigma-Aldrich, MO, USA). A volume of 1 μg RNA/sample was then subjected to reverse transcription (RT) using qScript cDNA Synthesis Kit (Quanta Biosciences, Gaithersburg, MD, USA). Further Real-time PCR analysis was performed using PerfeCta^TM SYBR® Green FastMix^TM, Low ROX^TM (Cat. No. 95074–012, Quanta Biosciences, Gaithersburg, MD, USA) and the QuantStudio 12 K Flex Real-Time PCR System (Thermo Fisher Scientific, Waltham, MA, USA). RNA expression levels were determined using specific mouse primers: Slc17a7 gene encoding VGLUT1, sense 5′-[…]-3′, anti-sense 5′-[…]-3′. Hypoxanthine-guanine phosphoribosyltransferase (Hprt) was selected as a stable reference gene with appropriate primers for mouse, sense 5′-[…]-3′, anti-sense 5′-[…]-3′. Results are presented as 2^-ΔCT[42].
# Adnp deficiency in mice = tested on: Adnp deficiency in mice; design: method as in PMID 26782054; conditions: cited from earlier work
substance,measurement,setting,value
NAPVSIPQ,"hippocampal mean diffusivity (MD), NAP- vs CB-treated",[1]; male Adnp+/+ mice (Supplemental Fig. S3A),no significant differences in MD
same,hippocampal fractional anisotropy (FA),[1]; male Adnp+/+ mice (Supplemental Fig. S3B),not affected
same,"hippocampal mean diffusivity (MD), effect on increase in Adnp+/-","[1]; male Adnp+/- mice, 7-8 months old, -1.84 mm from Bregma, n = 4-6 per group","although insignificant, was slightly reduced"
same,"VGLUT1 protein, intensity (Integrated Density), cortex",VGLUT1,trend of improvement
same,"VGLUT1 protein, area counting (area/mm^2), hippocampus","VGLUT1; five animals per group, technical replicates, p < 0.001 vs CB",full protection
same,"VGLUT1 protein, area counting (area/mm^2), cerebral cortex","VGLUT1; five animals per group, technical replicates, p < 0.05 vs CB",full protection
same,"VGLUT1 protein, intensity (Integrated Density), hippocampus",VGLUT1; p < 0.001 vs CB,significant
same,total odor sniffing time (AUC),"Adnp+/- mice [2]; female Adnp+/- mice, NAP vs CB vehicle, p < 0.05",significantly reduced
same,"odor discrimination ability (novel vs. familiar odor), differences between experimental groups",Adnp+/- mice [2]; females (Supplemental Fig. S2E),no significant differences
same,total time spent with the different odors (AUC),"Adnp+/- mice [2]; male Adnp+/- mice, NAP vs CB vehicle, p < 0.05",significantly increased
same,"odor discrimination ability (novel vs. familiar odor), differences between experimental groups",Adnp+/- mice [2]; males,no significant differences were observed between experimental groups
same,"object recognition, relative discrimination, short and long retention choice phases, NAP- vs CB-treated",Adnp+/- mice [3],no significant differences
same,"hanging wire test, latency to fall",Adnp+/- mice [4]; female Adnp+/- mice (Supplemental Fig. S2F),ameliorating this behavior
same,"hanging wire test, latency to fall","Adnp+/- mice [4]; male Adnp+/- mice, maximum time 90 sec",amelioration
same,"social recognition, sniffing time mouse vs cup","Adnp+/- mice [5]; NAP-treated Adnp+/- male mice, p < 0.001 vs. cup",significant differences between sniffing time of the cup (c) and mouse (M)
same,"social memory (D2, novel vs familiar mouse)","Adnp+/- mice [5]; female Adnp+/- mice, n = 3-4 per group, p < 0.001 vs vehicle (Supplemental Fig. S2D)",improved social memory
same,"social recognition, preference mouse vs object","Adnp+/- mice [5]; females (Supplemental Fig. S2C), n = 3-4 per group",significant preference to mice rather than objects
same,cognitive scores,patients; amnestic mild cognitive impairment patients,increase in cognitive scores
same,functional activities of daily living,patients; schizophrenia patients,protection of functional activities of daily living
same,efficacy in progressive supranuclear palsy (PSP),patients; severely affected individuals suffering from PSP,did not show efficacy
same,cerebral cortex VGLUT1 expression (reduced in Adnp+/-),"[6]; female Adnp+/- mice, n = 3-4 per group (Supplemental Fig. S4B)",no effect
same,hippocampal VGLUT1 gene expression,"[6]; females, n = 3-4 per group (Supplemental Fig. S4A)",not affected
same,"VGLUT1 transcript, cerebral cortex","[6]; male Adnp+/- mice, 2^-ΔCT normalized to Hprt, n = 4 per group","small, albeit significant decrease"
same,"Slc17a7 (VGLUT1) gene expression, hippocampus (decrease in Adnp+/-)","[6]; male Adnp+/- mice, 7.5-month-old, 2^-ΔCT normalized to Hprt, n = 4 per group",completely reversed
SKIP,impaired axonal transport,Adnp deficiency in mice,ameliorated
